Data: patent US20130052381A1, “POLYEPOXIDES AND EPOXY RESINS AND METHODS FOR THE MANUFACTURE AND USE THEREOF” (priority 2011, published 2013)

Legend:
[1] = biological target: T1, recombinant human estradiol receptors (rhER) alpha (α) (Homo sapiens, UniProt P03372); test: competitive radioligand binding assay, rhER alpha; details: at as high as […]10^−4 molar concentration
T1 sequence (P03372 1-595): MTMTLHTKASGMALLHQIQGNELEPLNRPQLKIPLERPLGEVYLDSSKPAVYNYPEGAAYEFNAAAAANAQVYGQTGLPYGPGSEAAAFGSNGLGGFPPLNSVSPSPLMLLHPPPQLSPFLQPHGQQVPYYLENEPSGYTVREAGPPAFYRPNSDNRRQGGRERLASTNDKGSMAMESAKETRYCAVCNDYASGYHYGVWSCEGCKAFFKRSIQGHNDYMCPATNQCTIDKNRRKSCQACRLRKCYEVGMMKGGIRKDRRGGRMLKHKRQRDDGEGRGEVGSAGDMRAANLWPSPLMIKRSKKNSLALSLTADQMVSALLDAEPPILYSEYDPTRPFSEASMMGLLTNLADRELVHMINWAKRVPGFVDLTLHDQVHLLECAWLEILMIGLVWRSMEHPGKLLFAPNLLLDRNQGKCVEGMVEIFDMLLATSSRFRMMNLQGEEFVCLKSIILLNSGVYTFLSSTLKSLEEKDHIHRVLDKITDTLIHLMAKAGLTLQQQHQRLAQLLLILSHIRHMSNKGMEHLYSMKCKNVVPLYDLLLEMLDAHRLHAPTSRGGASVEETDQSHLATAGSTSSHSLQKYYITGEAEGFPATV

[2] = biological target: recombinant human estradiol receptors (rhER) beta 1 (β1) (Homo sapiens, UniProt Q92731); test: competitive radioligand binding assay, rhER beta 1; details: at as high as […]10^−4 molar concentration

Compound | estradiol displacement at the alpha estradiol receptor [1] | estradiol displacement at the beta estradiol receptor [2]
CC(C)(C)c1cc(O)c(C(C)(C)C)cc1O [Example 8, Di t-Butyl Hydroquinone] | no displacement | no displacement
Biphenol [Example 7] | no displacement | –
Oc1cccc(O)c1 [Example 5, Resorcinol] | no detectible estradiol displacement | no detectible estradiol displacement
Cc1cc(O)ccc1O [Example 9, Methyl Hydroquinone] | – | no alpha or beta estradiol displacement
O=C1c2ccccc2C(c2ccc(O)cc2)(c2ccc(O)cc2)N1c1ccccc1 [Example 4, N-Phenyl Phenolphthalein Bisphenol] | no detectible estradiol displacement | no detectible estradiol displacement
